According to patent US10912741B2, “Prevention of liver cancer with safranal-based formulations” (United Arab Emirates University, priority 2019, dated 2021):

How the values were obtained:
HeLa cells = conditions: reported in the background; cited from earlier work
Malondialdehyde (MDA) = test: MDA level in liver homogenate, DEN/2-AAF hepatocarcinogenesis model; assay type: in vivo, albino Wistar rats; conditions: mean±SEM, 8 rats
Procedure: The experimental hepatocarcinogenesis model was developed according to a protocol by […] et al. that was adapted for our purposes. To initiate and promote hepatocarcinogenesis, diethylnitrosamine (DEN) and 2-acetylaminofluorene (2-AAF) were used, respectively. For hepatocarcinogenesis initiation in this model, a single DEN dose (200 mg/kg b.wt.) dissolved in saline was injected intraperitoneally. After initiation, all rats underwent one period of 5-days fasting, as mitotic proliferative stimuli. To promote hepatocarcinogenesis, 2-acetylaminofluorene (2-AAF) was introduced in the form of six daily intragastric doses (30 mg/kg in 1% Tween 80); two weeks after DEN treatment. […] at doses of 25 mg/kg by weight (b.wt.) and 50 mg/kg b.wt, was administrated orally to rats. These doses have been reported to suppress chemically-induced oxidative damage in rats. A total of 40 adult male albino Wistar rats were randomly divided into […] (n=8) and were subjected to different treatments. Group 1 (control) was orally administered distilled water (5 ml/kg b.wt.) throughout the experimental duration and were injected with a single dose of saline. Group 2 ([…] only) was subjected to a safranal dose (50 mg/kg b.wt.) through oral administration for the duration of the experimental period. Hepatocarcinogenesis was induced by DEN and promoted by 2-AAF, as reported previously, in group 3 (HCC). […] Glutathione (GSH) content was determined by analyzing liver homogenates, according to the method of Van Dooran et al. The assay depends on measuring yellow 5-thiol-2-nitrobenzoate absorbance at 412 nm. Glutathione-S-transferase (GST) activity was determined using the method of Habig et al. GST catalyzes the conjugation of GSH thiol group with 1-Chloro-2,4-dinitrobenzene (CDNB), which can be measured by determining the increase in absorbance at 340 nm. […] CAT decomposes hydrogen peroxide (H2O2) to oxygen and water; therefore, the activity of CAT was evaluated according to by the exponential decomposition of H2O2 at 240 nm. […] UV-160-Shimadzu recording spectrophotometer was used to record absorbances. […]

[1] = Cell viability assay (CellTiter-Glo); assay type: cell-based, human; conditions: human, HepG2 cells, 1 mM safranal, read-out: reduction of cell viability
Procedure: (§1) HepG2, were cultured in RPMI 1640 medium (HyClone, USA) and 1% of 100 U/ml penicillin and 100 ug/ml streptomycin (Sigma, USA) supplemented with 10% fetal bovine serum (Sigma, USA) at 37° C. in a humidified 5% CO2 atmosphere. Cells were sub-cultured each 4-6 days using trypsin 0.25% (Hyclone, USA).
(§2) HepG2 cells were seeded in 96-well plates at the density of 10000 cells/well and grown in 100 uL of complete growth medium. Complete growth medium was replaced by serum-free medium after cells were allowed to attach for 24 hours; after which cells were incubated for at least 12 hours. Cells were incubated for 24 hours after treatment with various concentrations of safranal (1 mM, 0.3 mM, 0.1 mM, 0.03 mM, 0.01 mM) prepared from 10 mM stock solution. After incubation period, viability of HepG2 cells was assessed using CellTiter-Glo luminescent cell viability assay kit according to manufacturer's instruction (Promega, USA).

HepG2 cells = test: Cell viability assay (CellTiter-Glo); assay type: cell-based, human; conditions: 0.01, 0.03, 0.1, 0.3, 1 mM, 24 hours
Procedure: as §1, §2

Q: With `CC1=C(C=O)C(C)(C)CC=C1` [Safranal, 2,6,6-trimethylcyclohexa-1,3-diene-1-carbaldehyde] as the compound, how does the “growth of HeLa cells” value (HeLa cells) read?
A: Its value is “inhibit the growth of HeLa cells”.

Q: And the MDA (Malondialdehyde (MDA); HCC (DEN/2-AAF) rats + safranal high dose 50 mg/kg b.wt. oral, 12 weeks)?
A: The MDA was 0.63 ± 0.03 nmol/mg protein.

Q: And the MDA (Malondialdehyde (MDA); HCC (DEN/2-AAF) rats + safranal low dose 25 mg/kg b.wt. oral, 12 weeks)?
A: Its MDA is 0.61 ± 0.02 nmol/mg protein.

Q: And the MDA (Malondialdehyde (MDA); safranal alone 50 mg/kg b.wt. oral, no DEN (group 2))?
A: Its MDA is 0.64 ± 0.02 nmol/mg protein.

Q: And the cytotoxicity at 24 h, 1 mM [1]?
A: Its cytotoxicity at 24 h, 1 mM is ~70%.

Q: And the HepG2 cells viability (HepG2 cells)?
A: Its HepG2 cells viability is “significant dose-dependent reduction”.
